Assay [1] deals with T1, Recombinant STAT3 protein (STAT3 (G127-I722)) (Homo sapiens, UniProt P40763).
T1 construct: Recombinant STAT3 protein (STAT3 (G127-I722))
Put plainly: STAT3 Fluorescence Polarization (FP) Assay. In kind it is binding. The following applies: STAT3 25 nM, probe 5-FAM-GpYLPQTV-NH2 2 nM, 45-minute incubation; read-out: STAT3 (FP assay IC50). The method, boiled down:
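Displacement of a 2 nM 5-FAM-labelled pY peptide (GpYLPQTV) from 25 nM recombinant STAT3 (G127-I722) was monitored by fluorescence polarization. Incubation lasted 45 min at room temperature in pH 7.4 HEPES buffer containing 1% DMSO.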
(In general: Polarisation of emitted light reports the rotation of a fluorescent probe.)

Assay [2] addresses T2, Recombinant STAT6 protein (STAT6 (W123-T658)) (Homo sapiens, UniProt P42226).
T2 construct: Recombinant STAT6 protein (STAT6 (W123-T658))
T2 sequence (P42226 123-658): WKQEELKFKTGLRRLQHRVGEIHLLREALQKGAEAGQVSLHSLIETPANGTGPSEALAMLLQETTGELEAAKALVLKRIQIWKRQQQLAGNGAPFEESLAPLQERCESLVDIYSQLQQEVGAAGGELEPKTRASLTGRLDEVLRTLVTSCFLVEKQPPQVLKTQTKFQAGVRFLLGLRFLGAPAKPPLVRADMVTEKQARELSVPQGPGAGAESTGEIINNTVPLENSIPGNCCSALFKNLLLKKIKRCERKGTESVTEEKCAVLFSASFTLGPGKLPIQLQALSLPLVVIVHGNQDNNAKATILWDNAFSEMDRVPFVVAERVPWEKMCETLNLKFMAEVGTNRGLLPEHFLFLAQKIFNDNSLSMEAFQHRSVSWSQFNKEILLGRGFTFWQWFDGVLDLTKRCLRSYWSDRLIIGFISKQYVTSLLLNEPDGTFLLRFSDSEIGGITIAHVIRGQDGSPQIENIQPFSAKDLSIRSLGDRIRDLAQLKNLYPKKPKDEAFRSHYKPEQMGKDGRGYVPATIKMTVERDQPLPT
As to the kind of experiment: STAT6 Fluorescence Polarization (FP) Assay. Format: binding. The following applies: STAT6 250 nM, probe 5-FAM-Ap[…]-NH2 2 nM, 45-minute incubation; read-out: STAT6 (FP assay IC50). In outline:
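Probe displacement format: serially diluted compounds incubated 45 min at room temperature with 2 nM fluorescent phosphopeptide and 250 nM STAT6 (W123-T658) in pH 7.4 HEPES buffer, 1% DMSO final. Polarization signal plotted against log concentration, IC50 fitted by nonlinear regression.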

T1 sequence (P40763 127-722): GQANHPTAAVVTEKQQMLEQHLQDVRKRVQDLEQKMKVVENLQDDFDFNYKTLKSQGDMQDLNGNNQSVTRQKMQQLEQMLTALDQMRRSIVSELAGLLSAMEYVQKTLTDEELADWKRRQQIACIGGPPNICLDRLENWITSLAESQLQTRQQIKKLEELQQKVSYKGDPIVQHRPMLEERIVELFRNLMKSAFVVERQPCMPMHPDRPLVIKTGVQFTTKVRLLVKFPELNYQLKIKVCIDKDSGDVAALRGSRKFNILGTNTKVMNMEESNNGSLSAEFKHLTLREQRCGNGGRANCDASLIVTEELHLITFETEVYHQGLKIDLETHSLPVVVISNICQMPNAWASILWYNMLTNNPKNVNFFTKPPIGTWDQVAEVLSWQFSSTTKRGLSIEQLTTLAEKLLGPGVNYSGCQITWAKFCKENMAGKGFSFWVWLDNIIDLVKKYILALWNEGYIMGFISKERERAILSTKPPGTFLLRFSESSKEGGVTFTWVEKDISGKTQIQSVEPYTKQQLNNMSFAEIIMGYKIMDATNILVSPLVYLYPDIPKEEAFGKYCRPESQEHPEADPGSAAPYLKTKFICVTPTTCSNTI

A word on the IC50: it is the concentration that gives 50% inhibition. On to `O=C(N[C@H]1CCCC[C@H]2CC[C@@H](C(=O)N3CC(Cc4ccccc4)C3)N2C1=O)c1cc2cc(C(F)(F)P(=O)(O)O)ccc2s1` [Compound 36, ((2-(((3S,6S,10aS)-3-(3-benzylazetidine-1-carbonyl)-5-oxodecahydro-pyrrolo[1,2-a]azocin-6-yl)carbamoyl)benzo[b]thiophen-5-yl)difluoromethyl) phosphonic acid], for which the IC50 in assay [1] was < 100 nM; in assay [2], 300 to 3000 nM.
On the same counts, the results for `O=C(N[C@H]1CCCC[C@H]2CC[C@@H](C(=O)NCc3n[nH]c4ncccc34)N2C1=O)c1cc2cc(C(F)(F)P(=O)(O)O)ccc2s1` [Compound 37, ((2-(((3S,6S,10aS)-3-(((1H-pyrazolo[3,4-b]pyridin-3-yl)methyl)carbamoyl)-5-oxodecahydro-pyrrolo[1,2-a]azocin-6-yl)carbamoyyl)benzo[b]thiophen-5-yl)difluoro-methyl) phosphonic acid] are 100 to 1000 nM and 300 to 3000 nM.
Taken in the same sequence, the figures for `Cn1c(C2CN(C(=O)[C@@H]3CC[C@@H]4CCCC[C@H](NC(=O)c5cc6cc(C(F)(F)P(=O)(O)O)ccc6s5)C(=O)N43)C2)nc2ccccc21` [Compound 38, (difluoro(2-(((3S,6S,10aS)-3-(3-(1-methyl-1H-benzo[d]imidazol-2-yl)azetidine-1-carbonyl)-5-oxodecahydropyrrolo [1,2-a]azocin-6-yl)carbamoyl)benzo[b]thiophen-5-yl)methyl) phosphonic acid] were < 100 nM and 300 to 3000 nM.
`O=C(N[C@H]1CCCC[C@H]2CC[C@@H](C(=O)N3CC(Oc4ccccc4)C3)N2C1=O)c1cc2cc(C(F)(F)P(=O)(O)O)ccc2s1` [Compound 39, (difluoro(2-(((3S,6S,10aS)-5-oxo-3-(3-phenoxyazetidine-1-carbonyl)decahydropyrrolo [1,2-a]azocin-6-yl)carbamoyl)benzo[b]thiophen-5-yl)methyl) phosphonic acid]: the IC50 lay in the range of 100 to 1000 nM in assay [1] and 300 to 3000 nM in assay [2].
In the case of `C[C@]1(NC(=O)c2cc3cc(C(F)(F)P(=O)(O)O)ccc3s2)CCCC[C@H]2CC[C@@H](C(=O)N3CC(C(=O)N4CCOCC4)C3)N2C1=O` [Compound 40, (difluoro(2-(((3S,6S,10aS)-6-methyl-3-(3-(morpholine-4-carbonyl)azetidine-1-carbonyl)-5-oxodecahydropyrrolo [1,2-a]azocin-6-yl)carbamoyl)benzo[b]thiophen-5-yl)methyl) phosphonic acid], the IC50 in assay [1] lay in the range of 100 to 1000 nM; in assay [2], 3000 to 30000 nM.
Turning to `O=C(N[C@H]1CCCC[C@H]2CC[C@@H](C(=O)N3CC4(CN(C(=O)Cc5ccccc5)C4)C3)N2C1=O)c1cc2cc(C(F)(F)P(=O)(O)O)ccc2s1` [Compound 42, (difluoro(2-(((3S,6S,10aS)-5-oxo-3-(6-(2-phenylacetyl)-2,6-diazaspiro[3.3]heptane-2-carbonyl)decahydropyrrolo [1,2-a]azocin-6-yl)carbamoyl)benzo[b]thiophen-5-yl)methyl) phosphonic acid], the IC50 in assay [1] is 100 to 1000 nM; in assay [2], ≤ 300 nM.
Taken in the same sequence, the figures for `O=C(N[C@H]1CCC[C@H]2CC[C@@H](C(=O)N3CC(c4nc5ccccc5[nH]4)C3)N2C1=O)c1cc2cc(C(F)(F)P(=O)(O)O)ccc2s1` [Compound 43, ((2-(((3S,6S,9aS)-3-(3-(1H-benzo[d]imidazol-2-yl)azetidine-1-carbonyl)-5-oxooctahydro-1H-pyrrolo[1,2-a]azepin-6-yl)carbamoyl)benzo[b]thiophen-5-yl)difluoromethyl) phosphonic acid] were < 100 nM and 300 to 3000 nM.
On the same counts, the results for `COc1ccc(N(C)C(=O)[C@@H]2CC[C@@H]3CCCC[C@H](NC(=O)c4cc5cc(C(F)(F)P(=O)(O)O)ccc5s4)C(=O)N32)cn1` [Compound 44, (difluoro(2-(((3S,6S,10aS)-3-((6-methoxypyridin-3-yl)(methyl)carbamoyl)-5-oxodecahydro-pyrrolo[1,2-a]azocin-6-yl)carbamoyl)benzo[b]thiophen-5-yl)methyl) phosphonic acid] are 1000 to 10000 nM and 300 to 3000 nM.
Regarding `O=C(N[C@H]1CCC[C@H]2CC[C@@H](C(=O)N3CC(O)(c4ccccn4)C3)N2C1=O)c1cc2cc(C(F)(F)P(=O)(O)O)ccc2s1` [Compound 45, (difluoro(2-(((3S,6S,9aS)-3-(3-hydroxy-3-(pyridin-2-yl)azetidine-1-carbonyl)-5-oxooctahydro-1H-pyrrolo[1,2-a]azepin-6-yl)carbamoyl)benzo[b]thiophen-5-yl)methyl) phosphonic acid], the IC50 in assay [1] was < 100 nM; in assay [2], 300 to 3000 nM.
Consider `O=C(N[C@H]1CCC[C@H]2CC[C@@H](C(=O)N3CC(c4ncccn4)C3)N2C1=O)c1cc2cc(C(F)(F)P(=O)(O)O)ccc2s1` [Compound 46, (difluoro(2-(((3S,6S,9aS)-5-oxo-3-(3-(pyrimidin-2-yl)azetidine-1-carbonyl)octahydro-1H-pyrrolo[1,2-a]azepin-6-yl)carbamoyl)benzo[b]thiophen-5-yl)methyl) phosphonic acid], for which the IC50 is < 100 nM in assay [1] and 3000 to 30000 nM in assay [2].
For `COc1cc(CCN(C)C(=O)[C@@H]2CC[C@@H]3CCCC[C@H](NC(=O)c4cc5cc(C(F)(F)P(=O)(O)O)ccc5s4)C(=O)N32)ccn1` [Compound 47, (difluoro(2-(((3S,6S,10aS)-3-((2-(2-methoxypyridin-4-yl)ethyl)(methyl)carbamoyl)-5-oxodecahydropyrrolo [1,2-a]azocin-6-yl)carbamoyl)benzo[b]thiophen-5-yl)methyl) phosphonic acid], the IC50 in assay [1] was in the range of 1000 to 10000 nM; in assay [2], 300 to 3000 nM.
Taken in the same sequence, the figures for `O=C(N[C@H]1CCCC[C@H]2CC[C@@H](C(=O)N3CCc4c(cc[nH]c4=O)C3)N2C1=O)c1cc2cc(C(F)(F)P(=O)(O)O)ccc2s1` [Compound 48, (difluoro(2-(((3S,6S,10aS)-5-oxo-3-(5-oxo-1,2,3,4,5,6-hexahydro-2,6-naphthyridine-2-carbonyl)decahydropyrrolo [1,2-a]azocin-6-yl)carbamoyl)benzo[b]thiophen-5-yl)methyl) phosphonic acid] were 1000 to 10000 nM and 3000 to 30000 nM.
On the same counts, the results for `O=C(N[C@H]1CCCC[C@H]2CC[C@@H](C(=O)NCc3cc[nH]c(=O)c3)N2C1=O)c1cc2cc(C(F)(F)P(=O)(O)O)ccc2s1` [Compound 49, (difluoro(2-(((3S,6S,10aS)-5-oxo-3-(((2-oxo-1,2-dihydropyridin-4-yl)methyl)carbamoyl)deca-hydropyrrolo[1,2-a]azocin-6-yl)carbamoyl)benzo[b]thiophen-5-yl)methyl) phosphonic acid] are 100 to 1000 nM and 3000 to 30000 nM.
On the same counts, the results for `N#CCC1CN(C(=O)[C@@H]2CC[C@@H]3CCC[C@H](NC(=O)c4cc5cc(C(F)(F)P(=O)(O)O)ccc5s4)C(=O)N32)C1` [Compound 50, ((2-(((3S,6S,9aS)-3-(3-(cyanomethyl)azetidine-1-carbonyl)-5-oxooctahydro-1H-pyrrolo[1,2-a]azepin-6-yl)carbamoyl)benzo[b]thiophen-5-yl)difluoromethyl) phosphonic acid] are 100 to 1000 nM and 300 to 3000 nM.
With `N#Cc1cccc(C2CN(C(=O)[C@@H]3CC[C@@H]4CCC[C@H](NC(=O)c5cc6cc(C(F)(F)P(=O)(O)O)ccc6s5)C(=O)N43)C2)c1` [Compound 51, ((2-(((3S,6S,9aS)-3-(3-(3-cyanophenyl)azetidine-1-carbonyl)-5-oxooctahydro-1H-pyrrolo[1,2-a]azepin-6-yl)carbamoyl)benzo[b]thiophen-5-yl)difluoromethyl) phosphonic acid], the results for the IC50 in assay [1] and in assay [2] were < 100 nM and 300 to 3000 nM, respectively.
On the same counts, the results for `N#Cc1[nH]nc2ccc(NC(=O)[C@@H]3CC[C@@H]4CCCC[C@H](NC(=O)c5cc6cc(C(F)(F)P(=O)(O)O)ccc6s5)C(=O)N43)cc12` [Compound 52, ((2-(((3S,6S,10aS)-3-((3-cyano-2H-indazol-5-yl)carbamoyl)-5-oxodecahydropyrrolo [1,2-a]azocin-6-yl)carbamoyl)benzo[b]thiophen-5-yl)difluoromethyl) phosphonic acid] are 1000 to 10000 nM and 300 to 3000 nM.
Taken in the same sequence, the figures for `O=C(N[C@H]1CCCC[C@H]2CC[C@@H](C(=O)N3CC(F)(c4ccccc4)C3)N2C1=O)c1cc2cc(C(F)(F)P(=O)(O)O)ccc2s1` [Compound 53, (difluoro(2-(((3S,6S,10aS)-3-(3-fluoro-3-phenylazetidine-1-carbonyl)-5-oxodecahydropyrrolo [1,2-a]azocin-6-yl)carbamoyl)benzo[b]thiophen-5-yl)methyl) phosphonic acid] were < 100 nM and 300 to 3000 nM.

Source of the values: patent publication US20250215029A1 (Recludix Pharma, Inc., priority 2022, published 2025).
